The values below come from patent US20130337564A1, “Treatment of Pluripotent Cells” (Janssen Biotech, Inc., priority 2012, published 2013).

Data set [1] concerns human embryonic stem cell line H9. The data set is described as follows: Dose titration secondary assay: cell number, H9. It counts as cell-based. Here is the method:
(§1) It was important to confirm the activity of hits identified from primary screening and further analyze the range of activity by dose titration. New samples of a selective subset of primary screening hits were obtained as dry powders, solubilized to make fresh stock reagents, and diluted into secondary confirmation assays to evaluate effects on human embryonic stem cells.
(§2) Culture of two human embryonic stem cells (H1 and H9) was conducted as described in Example 1. Colonies of cells were maintained in an undifferentiated, pluripotent state on Matrigel™ ([…]) coated polystyrene plastic, using a 1:30 dilution of Matrigel™ in DMEM:F12 to coat the surface. Cells were split by enzymatic passage every four days on average. Passage was performed by exposing cell monolayers to a solution of collagenase (1 mg/ml; Sigma-Aldrich) for 10 to 60 minutes at 37° C. followed by gentle scraping with a pipette tip to recover cell clusters. Clusters were allowed to sediment by gravity, then washed to remove residual collagenase. Cell clusters were split at a 1:3 ratio for maintenance culture or a 1:1 ratio for subsequent assay. The human embryonic stem cell lines were maintained at less than passage 50 and routinely evaluated for normal karyotypic phenotype and absence of mycoplasma contamination.
(§3) Cell clusters of the H1 or H9 human embryonic stem cell lines used in the assay were evenly resuspended in culture medium and plated onto Matrigel™-coated 96-well Packard VIEWPLATES (PerkinElmer) in volumes of 100 μl/well. MEF conditioned medium supplemented with 8 ng/ml bFGF was used for initial plating and expansion. Daily feeding was conducted by aspirating spent culture medium from each well and replacing with an equal volume of fresh medium. Cultures were allowed to expand one to three days after plating prior to initiating assay. Plates were maintained at 37° C., 5% CO2 in a humidified box for the duration of assay.
(§4) A subset of hits resulting from primary screening was used for follow-up study and subsequent secondary assays. Twenty compounds available as dry powders were solubilized as 10 mM stocks in DMSO and stored dessicated at […] until use Immediately prior to assay, compound stocks were diluted 1:1000 to make 10 μM test compound in DMEM:F12 base medium (Invitrogen) supplemented with 0.5% FCS (HyClone) and 100 ng/ml Activin A (R&D Biosystems). This was further diluted two-fold in series to make a seven point dilution curve for each compound, also in DMEM:F12 base medium with 0.5% FCS and 100 ng/ml Activin A.
(§5) Assay was initiated by aspirating culture medium from cell monolayers in each well followed by three washes in PBS to remove residual growth factors and serum. Test volumes of 100 μl per well were added back containing medium with 0.5% FCS and different concentrations of inhibitor compounds with 100 ng/ml Activin A, without Wnt3a. Positive control wells contained the same base medium with 0.5% FCS and with 20 ng/ml Wnt3a (R&D Biosystems) in the absence of test compound. Negative control wells contained the same base medium with 0.5% FCS, in the absence of Activin A, Wnt3a, or test compound. Assay wells were aspirated and fed again with identical concentrations of test compound or control solutions on day 2 of assay. On days 3 and 4, all assay wells were aspirated and fed with DMEM:F12 supplemented with 2% FCS and 100 ng/ml Activin A in the absence of both test compound or Wnt3a. Parallel negative control wells were maintained on days 3 and 4 in DMEM:F12 base medium with 2% FCS.
(§6) At the end of culture, cells in 96-well plates were washed twice with PBS then fixed with 4% paraformaldehyde at room temperature for 20 minutes, washed three times more with PBS, and then permeabilized with 0.5% Triton X-100 for 20 minutes at room temperature. After fixing and permeabilizing, cells were washed again three times with PBS and then blocked with 4% chicken serum (Invitrogen) in PBS for 30 minutes at room temperature. […]

Data set [2] deals with Sox17 expression in human embryonic stem cell line H1. The data set is described as follows: Dose titration secondary assay: Sox17 intensity, H1. In kind it is cell-based. The method, then:
as §1, §2, §3, §4, §5, §6

Data set [3] in a line: MTS viability (toxicity) assay of cells expressing pluripotency markers. In kind it is cell-based, human. The note with it: human, MTS on day 4, relative to Activin A + Wnt3a positive control, read-out: % Control (percentage viability of control); for viability at 4 days, 2.5 μM: cmpd conc 2.5 μM; for viability at 4 days, 5 μM: cmpd conc 5 μM; for viability at 4 days, 10 μM: cmpd conc 10 μM. The method in brief: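 A GSK-3B inhibitor library was screened for toxicity to pluripotency-marker-expressing cells. Compound was given in DMEM:F12 with 0.5% FCS and 100 ng/ml Activin A for two days, then replaced by medium with 2% FCS and Activin A. On day 4, MTS absorbance at 490 nm gave viability as percent of Activin A plus Wnt3a control wells.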

For `CN1CCN(C)CCn2cc(c3ccccc32)C2=C(C(=O)NC2=O)c2cn(c3ccccc23)CC1` [Compound 111, 8,11-Dimethyl-6,7,8,9,10,11,12,13-octahydro-20H-5,23:14,19-di(metheno)dibenzo[k,q]pyrrolo[3,4-n][1,4,7,10]tetraazacyclooctadecine-20,22(21H)-dione], the Cell number in data set [1] (0.156 μM compound) was 0.072; in data set [1] (0.313 μM compound), 0.100; in data set [1] (0.625 μM compound), 0.371; in data set [1] (1.25 μM compound) it was 0.442; in data set [1] (2.5 μM compound), 0.600; in data set [1] (5 μM compound), 0.793. This molecule also returned a Cell number in data set [1] (10 μM compound) of 1.117. The “Sox17 Intensity” value was found to be 0.628 in data set [2] (0.156 μM compound); 0.667 in data set [2] (0.313 μM compound); 0.755 in data set [2] (0.625 μM compound); 0.819 in data set [2] (1.25 μM compound); 0.887 in data set [2] (2.5 μM compound); 0.846 in data set [2] (5 μM compound). For the same molecule, in data set [2] (10 μM compound), the “Sox17 Intensity” value came out at 0.330.
Regarding `CCN1CCOCCOCCn2cc(c3ccccc32)C2=C(C(=O)NC2=O)c2cn(c3ccccc23)CC1` [Compound 103, 14-Ethyl-6,7,9,10,13,14,15,16-octahydro-12H,23H-5,26:17,22-di(metheno)dibenzo[k,q]pyrrolo[3,4-n][1,4,7,10,19]dioxatriacyclohenicosine-23,25(24H)-dione], the Cell number was determined as 0.458 in data set [1] (0.156 μM compound); 0.686 in data set [1] (0.313 μM compound); 0.927 in data set [1] (0.625 μM compound); 1.011 in data set [1] (1.25 μM compound); 0.681 in data set [1] (2.5 μM compound); 0.023 in data set [1] (5 μM compound). Also, in data set [1] (10 μM compound), the Cell number is on record as 0.001. Further, the “Sox17 Intensity” value in data set [2] (0.156 μM compound) was found to be 0.986; in data set [2] (0.313 μM compound), 0.934; in data set [2] (0.625 μM compound) it was 0.824; in data set [2] (1.25 μM compound), 0.792; in data set [2] (2.5 μM compound) it was 0.200; in data set [2] (5 μM compound) it was 0.017. Further, in data set [2] (10 μM compound), the “Sox17 Intensity” value is 0.001.
As to `O=C1NC(=O)C2=C1c1cn(c3ccccc13)CCOCCOCCN(Cc1cccc3ccccc13)CCn1cc2c2ccccc21` [Compound 136, 14-(Naphthalen-1-ylmethyl)-6,7,9,10,13,14,15,16-octahydro-12H,23H-5,26:17,22-di(metheno)dibenzo[k,q]pyrrolo[3,4-n][1,4,7,10,19]dioxatriazacyclohenicosine-23,25(24H)-dione], the Cell number is 0.147 in data set [1] (0.156 μM compound); 0.192 in data set [1] (0.313 μM compound); 0.267 in data set [1] (0.625 μM compound); 0.334 in data set [1] (1.25 μM compound); 0.388 in data set [1] (2.5 μM compound); 0.320 in data set [1] (5 μM compound). In addition, the Cell number in data set [1] (10 μM compound) was 0.208. Further, the “Sox17 Intensity” value in data set [2] (0.156 μM compound) came to 0.666; in data set [2] (0.313 μM compound), 0.859; in data set [2] (0.625 μM compound), 0.887; in data set [2] (1.25 μM compound), 0.783; in data set [2] (2.5 μM compound), 0.373; in data set [2] (5 μM compound), 0.141. Moreover, the “Sox17 Intensity” value in data set [2] (10 μM compound) is 0.054.
In general, viability refers to a read-out of living cells in per cent, often relative to untreated cells. For the molecule `O=C1NC(=O)C(c2nn(CCO)c3ccccc23)=C1c1cn(-c2cncnc2)c2ccccc12` [Compound 226, 3-[1-(2-Hydroxyethyl)-1H-indazol-3-yl]-4-(1-pyrimidin-5-yl-1H-indol-3-yl)-1H-pyrrole-2,5-dione], in data set [3], the viability at 4 days, 2.5 μM came out at 86.3%; the viability at 4 days, 5 μM is 86.7%; the viability at 4 days, 10 μM turned out to be 78.9%.
Taken in the same sequence, the figures for `CN(C)CCCn1c2c(c3ccccc31)C1=C(C(=O)NC1=O)N(c1cccc(Cl)c1)C2` [Compound 101, 4-(3-Chlorophenyl)-6-[3-(dimethylamino)propyl]-5,6-dihydropyrrolo[3′,4′:5,6]pyrido[3,4-b]indole-1,3(2H,4H)-dione] were 100%, 95.9% and 1.3%.
Taken in the same sequence, the figures for `COC(=O)c1cncc(-n2cc(C3=C(c4nn(CCO)c5ccccc45)C(=O)NC3=O)c3cc(Cl)ccc32)c1` [Compound 150, Methyl 5-(5-chloro-3-{4-[1-(2-hydroxyethyl)-1H-indazol-3-yl]-2,5-dioxo-2,5-dihydro-1H-pyrrol-3-yl}-1H-indol-1-yl)pyridine-3-carboxylate] were 94.8%, 84.9% and 14.3%.
For the molecule `O=C1NC(=O)C2=C1c1cn(c3ccccc13)CCOCCOCCN(Cc1cccs1)CCn1cc2c2ccccc21` [Compound 133, 14-(2-Thienylmethyl)-6,7,9,10,13,14,15,16-octahydro-12H,23H-5,26:17,22-di(metheno)dibenzo[k,q]pyrrolo[3,4-n][1,4,7,10,19]dioxatriazacyclohenicosine-23,25(24H)-dione], the Cell number in data set [1] (0.156 μM compound) is recorded as 0.206; in data set [1] (0.313 μM compound), 0.540; in data set [1] (0.625 μM compound), 0.899; in data set [1] (1.25 μM compound), 1.477; in data set [1] (2.5 μM compound), 1.368; in data set [1] (5 μM compound), 1.067. In data set [1] (10 μM compound), this molecule returned a Cell number of 0.785. The “Sox17 Intensity” value is 0.888 in data set [2] (0.156 μM compound); 0.937 in data set [2] (0.313 μM compound); 1.061 in data set [2] (0.625 μM compound); 0.993 in data set [2] (1.25 μM compound); 0.497 in data set [2] (2.5 μM compound); 0.071 in data set [2] (5 μM compound). In data set [2] (10 μM compound), the “Sox17 Intensity” value was 0.034.
Turning to `Cc1c[nH]c(-c2cnc(NCCNc3ccc(C#N)cn3)nc2-c2ccc(Cl)cc2Cl)n1` [Compound 221, 6-[(2-{[4-(2,4-Dichlorophenyl)-5-(4-methyl-1H-imidazol-2-yl)pyrimidin-2-yl]amino}ethyl)amino]pyridine-3-carbonitrile], in data set [3], the viability at 4 days, 2.5 μM turned out to be 112%; the viability at 4 days, 5 μM came out at 82.3%; the viability at 4 days, 10 μM came out at 67.5%.
Taken in the same sequence, the figures for `O=C1NC(=O)C2=C1Nc1cccc(c1)OCCC/C=C\CCCOc1cccc2c1` [Compound 233, (11Z)-8,9,10,13,14,15-Hexahydro-2,6:17,21-di(metheno)pyrrolo[3,4-h][1,15,7]dioxazacyclotricosine-22,24(1H,23H)-dione] were 41.6%, 0% and 1.5%.
